Results: article PMC12032302, “A20 attenuates oxidized self-DNA-mediated inflammation in acute kidney injury” (Signal Transduction and Targeted Therapy, 2025)
Entries after “also recorded” stand apart in the source; their conditions may differ. Residues, ends and D or L forms follow the SMILES beside them.

Tests used:
AKI mice [1] = assay: serum creatinine of AKI mice; type: in vivo, mouse; conditions: Cis-treated mice; A20-derived peptide 15 mg/kg i.p., pretreated; n = 5
Method: LPS (Sigma, Cat#L2630) was dissolved in PBS to 2.5 mg/mL for one-time intraperitoneal 25 mg/kg injection; deoxyribonuclease I (DNase I, Sigma, Cat#SLBV1446) was dissolved in PBS to 1 mg/mL and injected intraperitoneally at a dose of 10 mg/kg at 4 h before cisplatin or AA I injection and every 24 h after injection. Disulfiram (MedChemExpress, CAS:97-77-8) was diluted in corn oil to 12.5 mg/mL and injected 50 mg/kg intraperitoneally every 24 h after cisplatin or AA I administration. Cu(II) (Sigma, Cat#344419) was dissolved in PBS to 30 µg/mL and administered intraperitoneally 6 h before disulfiram at a dose of 0.15 mg/kg; TNF-α (Peprotech, Cat#315-01 A) was dissolved in PBS to 10 µg/mL and injected at 100 µg/kg once through the caudal vein 24 h before cisplatin injection. […] MCC950 (MedChem Express, CAS:256373-96-3) was dissolved in PBS to 5 mg/mL and injected intraperitoneally at a dose of 50 mg/kg 12 h before cisplatin or AA I injection and every 12 h after injection; berberine (APExBIO, Cat#N1368) was dissolved in PBS to 5 mg/mL and 5 mg/kg injected intraperitoneally at 36, 24 and 12 h before cisplatin; […] To supervise the effects of various treatments on survival time and rate, the mice were observed, and survival curves were generated. To investigate the specific mechanisms, whole blood was retrieved from the orbit, serum was separated through centrifugation on the 4th day, and the mice were then sacrificed by cervical dislocation. Mice were randomly assigned in experiments, while there was no blinding during the animal experiments. Renal function was evaluated based on serum creatinine level and histological features. Serum creatinine was determined in the Clinical Pharmacology Lab, Clinical Trial Center, WCH, SCU. The kidneys were extracted from euthanized mice, immediately fixed with 4% paraformaldehyde, and embedded in paraffin. Furthermore, the samples were cut into 5 µm thick sections. These tissue samples were subjected to hematoxylin-eosin (HE) and […] according to standard protocols with HE reagent (Biosharp, Cat#BL702B, BL703B) and Masson reagent (Servicebio, Cat#G1006-100ML). The pathological changes were detected through optical microscopy, and the tubulointerstitial injury score was determined as previously reported.

HA-NEK7 K140A = assay: biotin-P-II immunoprecipitation of HA-NEK7 K140A; type: binding, mouse; conditions: co-IP with biotin-labeled P-II, HEK293T lysates, overnight 4 °C, immunoblot; Fig. 7c
Method: For biotin mediated immunoprecipitation, plasmids of HA-NEK7 (WT, K130A, L132R, K140A and Tri-MUT) were transfected into HEK293T cells for 2 days. Then, cells were lysed in MLB with inhibitor cocktail for 10 min at 4 °C. Cell lysates were collected and centrifuged at 12,000 rpm for 15 min at 4 °C and the supernatant was incubated with biotin conjunction peptide overnight at 4 °C. On the next day, streptavidin magnetic beads(Invitrogen, Lot#91221939) were added and incubated for 1 h. The immunocoprecipitated protein was then subjected to washing, heating, and western blot analysis.
Mouse HA-NEK7, FlAG-A20, and NLRP3 cDNA were amplified by employing standard PCR techniques from a mouse cDNA library. Subsequently, diverse cDNAs were inserted into mammalian expression vectors pcDNA3.1(+), pRK5, or pCMV6 with 3×Flag or 3×HA tags. For transient transfections, Lipofectamine 3000 was utilized according to the manufacturer’s instructions.

AKI mice [2] = assay: overall therapeutic effect in AKI mice; type: in vivo, mouse; conditions: A20-derived peptide (P-II), abstract
Method: Aristolochic acid I sodium salt was dissolved in PBS to 1 mg/mL and injected intraperitoneally at a dose of 10 mg/kg (body weight) every 24 h for 3 days; cisplatin was dissolved in PBS to 1.5 mg/mL for one-time intraperitoneal 25 mg/kg injection; LPS (Sigma, Cat#L2630) was dissolved in PBS to 2.5 mg/mL for one-time intraperitoneal 25 mg/kg injection; deoxyribonuclease I (DNase I, Sigma, Cat#SLBV1446) was dissolved in PBS to 1 mg/mL and injected intraperitoneally at a dose of 10 mg/kg at 4 h before cisplatin or AA I injection and every 24 h after injection. Disulfiram (MedChemExpress, CAS:97-77-8) was diluted in corn oil to 12.5 mg/mL and injected 50 mg/kg intraperitoneally every 24 h after cisplatin or AA I administration. Cu(II) (Sigma, Cat#344419) was dissolved in PBS to 30 µg/mL and administered intraperitoneally 6 h before disulfiram at a dose of 0.15 mg/kg; TNF-α (Peprotech, Cat#315-01 A) was dissolved in PBS to 10 µg/mL and injected at 100 µg/kg once through the caudal vein 24 h before cisplatin injection. Metformin (Sigma, Cat#D150959) was dissolved in PBS to 5 mg/mL and injected intraperitoneally at a dose of 50 mg/kg 24 h before cisplatin or AA I injection and every 24 h after injection. MCC950 (MedChem Express, CAS:256373-96-3) was dissolved in PBS to 5 mg/mL and injected intraperitoneally at a dose of 50 mg/kg 12 h before cisplatin or AA I injection and every 12 h after injection; berberine (APExBIO, Cat#N1368) was dissolved in PBS to 5 mg/mL and 5 mg/kg injected intraperitoneally at 36, 24 and 12 h before cisplatin; A20-derived-peptide was dissolved in ddH2O to 3 mg/mL and injected intraperitoneally at a dose of 15 mg/kg 1 h before cisplatin. To supervise the effects of various treatments on survival time and rate, the mice were observed, and survival curves were generated. To investigate the specific mechanisms, whole blood was retrieved from the orbit, serum was separated through centrifugation on the 4th day, and the mice were then sacrificed by cervical dislocation. Mice were randomly assigned in experiments, while there was no blinding during the animal experiments.

Question: How did the “serum creatinine (in words)” value (AKI mice [1]) turn out when CSCC[C@H](NC(=O)[C@H](Cc1ccc(O)cc1)NC(=O)[C@H](CCC(N)=O)NC(=O)[C@H](CS)NC(=O)[C@H](C)NC(=O)[C@H](C)NC(=O)[C@H](Cc1c[nH]cn1)NC(=O)[C@H](CCSC)NC(=O)[C@H](CC(C)C)NC(=O)[C@H](CS)NC(=O)[C@H](CC(N)=O)NC(=O)CNC(=O)[C@H](CC(=O)O)NC(=O)CNC(=O)[C@H](CC(N)=O)NC(=O)[C@@H](NC(=O)[C@H](CCCCN)NC(=O)[C@H](CC(C)C)NC(=O)[C@H](C)NC(=O)[C@@H](NC(=O)[C@H](CC(C)C)NC(=O)[C@@H](N)CCCCN)C(C)C)[C@@H](C)O)C(=O)N[C@@H](Cc1c[nH]c2ccccc12)C(=O)NCC(=O)N[C@H](C(=O)N[C@@H](CCC(N)=O)C(=O)N[C@@H](CC(=O)O)C(=O)N[C@H](C(=O)N[C@@H](CC(=O)O)C(=O)O)[C@@H](C)O)C(C)C [P-II] (H-KLVALKTNGDGNCLMHAACQYMWGVQDTD-OH; N-terminus and C-terminus assumed) was run?
Answer: Its value is “alleviated the serum creatinine”.

Question: What about the “binding of NEK7 and P-II, effect of K140A mutation” value (HA-NEK7 K140A) of the same compound?
Answer: The value was “significantly attenuate the binding of NEK7 and P-II; also recorded: Lys140 of NEK7 is crucial for this binding”.

Question: What about the “survival and renal injury of AKI mice” value (AKI mice [2]) of the same compound?
Answer: Its value is “improves the survival and renal injury of AKI mice”.
